Activity calls are given as the source filed them. The rule behind the calls is not given here.
How the values were obtained:
[1] = system: LoVo; assay: Growth inhibition of human apoptosis-sensitive LoVo cells after 72 hrs by MTT assay; type: functional, cell-based
[2] = Growth inhibition of human apoptosis-resistant OE21 cells after 72 hrs by MTT assay; type: functional, cell-based; details: OE21, 72 h
[3] = system: A549; assay: Growth inhibition of human apoptosis-resistant A549 cells after 72 hrs by MTT assay; type: functional, cell-based; details: A549, 72 h
[4] = system: SK-MEL-28; assay: Growth inhibition of human apoptosis-resistant SK-MEL-28 cells after 72 hrs by MTT assay; type: functional, cell-based; details: SK-MEL-28, 72 h
[5] = system: PC-3; assay: Growth inhibition of human apoptosis-sensitive PC3 cells after 72 hrs by MTT assay; type: functional, cell-based; details: PC-3, 72 h
[6] = Growth inhibition of human apoptosis-resistant U373 cells after 72 hrs by MTT assay; type: functional, cell-based, U-373MG ATCC; details: U373 MG
[7] = system: U-373MG ATCC; assay: Cytostatic effect against human apoptosis-resistant U373 cells assessed as inhibition of cell entry into mitosis at 3 uM after 72 hrs by computer-assisted phase contrast microscopy; type: functional, cell-based
[8] = system: U-373MG ATCC; assay: Cytostatic effect against human apoptosis-resistant U373 cells at 7 uM assessed as induction of vacuolization after 72 hrs by computer-assisted phase contrast microscopy; type: functional, cell-based
[9] = system: U-373MG ATCC; assay: Cytostatic effect against human apoptosis-resistant U373 cells assessed as increase in mitosis duration at 16 uM after 72 hrs by computer-assisted phase contrast microscopy; type: functional, cell-based

SMILES	IC50 [1] [µM]	IC50 [2] [µM]	IC50 [3] [µM]	IC50 [4] [µM]	IC50 [5] [µM]	IC50 [6] [µM]	inhibition [7]	inhibition [8]	inhibition [9]
CC(C)[C@@H]1C=C[C@H](OO)[C@H]2[C@@H]3[C@](C)(O)[C@@H](O)C[C@H](Br)[C@@]3(C)CC[C@@]21CBr	28	27	26	28	28	22	–	–	–
CC(C)[C@@H]1CC=C[C@H]2[C@H]3[C@@](C)(C=CC(=O)[C@@]3(C)O)CC[C@]12CBr [SPHAEROCOCCENOL A]	2.8	3	3.7	5.2	3.7	3.2	Active	–	–
CC(C)[C@@H]1CC=C[C@H]2[C@H]3[C@](C)(CC[C@]12CBr)[C@@H](O)CC(=O)[C@@]3(C)O	5.3	8.4	18	21	8.1	7.2	–	Active	–
CC(C)[C@@H]1CC=C[C@H]2[C@@H]3[C@](C)(O)[C@@H](O)C[C@H](Br)[C@@]3(C)CC[C@]12CBr	9	19	19	22	12	16	–	–	Active
CC(C)[C@@H]1C=C[C@H](OO)[C@H]2[C@@H]3[C@](C)(O)[C@H](O)C[C@H](Br)[C@@]3(C)CC[C@@]21CBr	22	25	40	31	30	32	–	–	–
C=C1CC[C@@H]2[C@H]([C@@H]3[C@H](C)CC[C@H]13)C2(C)C	63	83	79	> 100	35	71	–	–	–
CC(C)[C@@H]1CC[C@H](O)[C@H]2[C@H]3[C@](C)(CC[C@@]21CBr)[C@@H](Br)CC[C@@]3(C)O	23	20	28.6	26	25	25	–	–	–
CC(C)[C@@H]1CC=C[C@H]2[C@H]3[C@](C)(CC[C@]12CBr)[C@@H](Br)CC[C@@]3(C)O [BROMOSPHAEROL]	23	28	35	34	30	30	–	–	–
CC(C)[C@@H]1C=C[C@H](O)[C@H]2[C@H]3[C@](C)(CC[C@@]21CBr)[C@@H](Br)CC[C@@]3(C)O [BROMOSPHAERODIOL]	20	15	24	31	26	22	–	–	–
CC(C)[C@@H]1CC[C@@H]2[C@@H](O)[C@H]3[C@](C)(CC[C@]21C)[C@@H](Br)CC[C@@]3(C)O [NEODOLASTANE]	64	60	97	96	74	85	–	–	–
C=C1CC[C@@]2(C)[C@H](/C=C/CC[C@H]1C(C)C)[C@](C)(O)[C@H](O)C[C@@H]2Br	24	33	64	62	48	60	–	–	–
C=C1CC[C@H]2[C@@H](C(C)C)CC[C@@H]2/C=C/[C@](C)(O)CC[C@H]1OC(C)=O [SPHAEROLLANE I]	23	34	44	57	34	20	–	–	–
CC(C)[C@@H]1CC=C[C@H]2[C@@H]3[C@](C)(O)[C@H](O)C[C@H](Br)[C@@]3(C)CC[C@]12CBr	26	25	28	29	26	25	–	–	–
CC(C)[C@]1(O)C[C@H]2C[C@H]3[C@H]4[C@](C)(CC[C@@]31C2)[C@@H](Br)CC[C@@]4(C)O	56	64	63	> 100	43	75	–	–	–
CC(=O)[C@H]1[C@@H]2[C@H]3CC[C@@H](C(C)C)[C@]3(C)CC[C@]2(C)[C@@H](Br)C[C@@H]1O [CORONONE]	28	30	42	38	30	31	–	–	–
CC(C)[C@@H]1C[C@@H]2C[C@@]13CC[C@]1(C)[C@@H](Br)CC[C@@](C)(O)[C@H]1[C@@H]3[C@H]2O [BROMOTETRASPHAEROL]	26	33	38	43	30	34	–	–	–

Source: ChEMBL document CHEMBL1159099, “Structure and in vitro antitumor activity evaluation of brominated diterpenes from the red alga Sphaerococcus coronopifolius” (Bioorg Med Chem, 2010)
